According to patent US20180002288A1, “USE OF PICOLINAMIDES AS FUNGICIDES” (DOW AGROSCIENCES LLC, priority 2014, published 2018):
Read-outs that look alike come from different tables or passages of the source.

Legend:
Type in all cases: in vivo
[1] = system: Zymoseptoria tritici; experiment: Leaf Blotch of Wheat fungicidal activity (SEPTTR); conditions: Low Volume Cereal Activity at 121.5 g/Ha
[2] = system: Cercospora beticola; experiment: Leaf Spot of Sugar Beets fungicidal activity (CERCBE); conditions: 24 h, sugar beet, high volume, 1 Day Protectant, read-out: CERCBE % Control rating
Description: All fungicides were evaluated using the aforementioned method for their activity vs. all target diseases, unless stated otherwise. Wheat leaf blotch and brown rust activity were also evaluated using track spray applications, in which case the fungicides were formulated as EC formulations, containing 0.1% Trycol 5941 in the spray solutions. Wheat plants (variety Yuma) were grown from seed in a greenhouse in 50% mineral soil/50% soil-less Metro mix until the first leaf was fully emerged, with 7-10 seedlings per pot. These plants were inoculated with an aqueous spore suspension of Zymoseptoria tritici either prior to or after fungicide treatments. After inoculation the plants were kept in 100% relative humidity (one day in a dark dew chamber followed by two to three days in a lighted dew chamber at 20° C.) to permit spores to germinate and infect the leaf. The plants were then transferred to a greenhouse set at 20° C. for disease to develop. When disease symptoms were fully expressed on the 1st leaves of untreated plants, infection levels were assessed on a scale of 0 to 100 percent disease severity. Percent disease control was calculated using the ratio of disease severity on treated plants relative to untreated plants. Sugar beet plants (variety HH88) were grown in soil-less Metro mix and trimmed regularly to maintain a uniform plant size prior to test. Plants were inoculated with a spore suspension 24 hr after fungicide treatments. Inoculated plants were kept in a dew chamber at 22° C. for 48 hr then incubated in a greenhouse set at 24° C. under a clear plastic hood with bottom ventilation until disease symptoms were fully expressed. Fungicide formulation, application and disease assessment on the sprayed leaves followed the procedures as described in the Example A.

[3] = system: Venturia inaequalis; experiment: Apple Scab fungicidal activity (VENTIN); conditions: 24 h, high volume, 1 Day Protectant, read-out: VENTIN % Control rating
Description: All fungicides were evaluated using the aforementioned method for their activity vs. all target diseases, unless stated otherwise. Wheat leaf blotch and brown rust activity were also evaluated using track spray applications, in which case the fungicides were formulated as EC formulations, containing 0.1% Trycol 5941 in the spray solutions. Wheat plants (variety Yuma) were grown from seed in a greenhouse in 50% mineral soil/50% soil-less Metro mix until the first leaf was fully emerged, with 7-10 seedlings per pot. These plants were inoculated with an aqueous spore suspension of Zymoseptoria tritici either prior to or after fungicide treatments. After inoculation the plants were kept in 100% relative humidity (one day in a dark dew chamber followed by two to three days in a lighted dew chamber at 20° C.) to permit spores to germinate and infect the leaf. The plants were then transferred to a greenhouse set at 20° C. for disease to develop. When disease symptoms were fully expressed on the 1st leaves of untreated plants, infection levels were assessed on a scale of 0 to 100 percent disease severity. Percent disease control was calculated using the ratio of disease severity on treated plants relative to untreated plants. […] Seedlings with two expanding young leaves at the top (older leaves at bottom of the plants were trimmed) were used in the test. Plants were inoculated with a spore suspension of Venturia inaequalis 24 hr after fungicide treatment and kept in a 22° C. dew chamber with 100% relative humidity for 48 hr, and then moved to a greenhouse set at 20° C. for disease to develop. Fungicide formulation, application and disease assessment on the sprayed leaves followed the procedures as described in the Example A.

[4] = system: Pyricularia oryzae; experiment: whole plant or invertebrate; conditions: 24 h, read-out: PYRIOR % Control rating
[5] = system: Colletotrichum lagenarium; experiment: Cucumber Anthracnose fungicidal activity (COLLLA); conditions: Colletotrichum orbiculare, 24 h, high volume, 1 Day Protectant, read-out: COLLLA % Control rating
Description: All fungicides were evaluated using the aforementioned method for their activity vs. all target diseases, unless stated otherwise. Wheat leaf blotch and brown rust activity were also evaluated using track spray applications, in which case the fungicides were formulated as EC formulations, containing 0.1% Trycol 5941 in the spray solutions. Wheat plants (variety Yuma) were grown from seed in a greenhouse in 50% mineral soil/50% soil-less Metro mix until the first leaf was fully emerged, with 7-10 seedlings per pot. These plants were inoculated with an aqueous spore suspension of Zymoseptoria tritici either prior to or after fungicide treatments. After inoculation the plants were kept in 100% relative humidity (one day in a dark dew chamber followed by two to three days in a lighted dew chamber at 20° C.) to permit spores to germinate and infect the leaf. The plants were then transferred to a greenhouse set at 20° C. for disease to develop. When disease symptoms were fully expressed on the 1st leaves of untreated plants, infection levels were assessed on a scale of 0 to 100 percent disease severity. Percent disease control was calculated using the ratio of disease severity on treated plants relative to untreated plants. Cucumber seedlings (variety Bush Pickle) were propagated in soil-less Metro mix, with each pot having one plant, and used in the test when 12 to 14 days old. Test plants were inoculated with an aqueous spore suspension of Colletotrichum lagenarium 24 hr after fungicide treatments. After inoculation the plants were kept in a dew room at 22° C. with 100% relative humidity for 48 hr to permit spores to germinate and infect the leaf. The plants were then transferred to a growth room set at 22° C. for disease to develop. Fungicide formulation, application and disease assessment on the sprayed leaves followed the procedures as described in the Example A.

[6] = 24 h, 1 Day Protectant, read-out: SEPTTR 1DP (Wheat Leaf Blotch, 1 Day Protectant)
[7] = 72 h, 3 Day Curative, read-out: SEPTTR 3DC (Wheat Leaf Blotch, 3 Day Curative)

Row | Structure (SMILES) | pest or weed control at 121.5 g/ha [1, 6] [%] | pest or weed control at 121.5 g/ha [1, 7] [%] | pest or weed control at 100 ppm [2] [%] | pest or weed control at 100 ppm [3] [%] | pest or weed control at 100 ppm [4] [%] | pest or weed control at 100 ppm [5] [%]
1 | COc1ccnc(C(=O)N[C@@H](C)C(=O)O[C@@H](C)[C@H](Oc2ccccc2)c2ccc3ccccc3c2)c1OCOC(C)=O [Example 263] | > 80 | > 80 | > 80 | < 80 | > 80 | > 80
2 | COc1ccnc(C(=O)N[C@@H](C)C(=O)O[C@@H](C)[C@H](Oc2ccccc2)c2ccc(F)cc2F)c1OCOC(C)=O [Example 250] | > 80 | > 80 | < 80 | – | < 80 | > 80
3 | COc1ccnc(C(=O)N[C@@H](C)C(=O)O[C@@H](C)[C@H](Oc2ccccc2)c2ccc(F)cc2Cl)c1OCOC(C)=O [Example 260] | > 80 | > 80 | > 80 | < 80 | > 80 | > 80
4 | COc1ccnc(C(=O)N[C@@H](C)C(=O)O[C@@H](C)[C@H](Oc2cc(F)cc(Cl)c2)c2ccccc2)c1OC(C)=O [Example 207] | > 80 | > 80 | > 80 | > 80 | > 80 | > 80
5 | COc1ccnc(C(=O)N[C@@H](C)C(=O)O[C@@H](C)[C@H](Oc2ccccc2)c2ccc(F)cc2C)c1OCOC(C)=O [Example 259] | > 80 | > 80 | > 80 | < 80 | > 80 | > 80
6 | COc1ccnc(C(=O)N[C@@H](C)C(=O)O[C@@H](C)[C@H](Oc2ccc(F)cc2)c2ccccc2)c1OCOC(C)=O [Example 237] | > 80 | > 80 | > 80 | < 80 | > 80 | < 80
7 | COc1ccnc(C(=O)N[C@@H](C)C(=O)O[C@@H](C)[C@H](Oc2cccc(F)c2)c2ccccc2)c1OCOC(C)=O [Example 187] | > 80 | > 80 | > 80 | – | > 80 | > 80
8 | COc1ccnc(C(=O)N[C@@H](C)C(=O)O[C@@H](C)[C@H](Oc2ccccc2)c2ccc(C)cc2)c1OCOC(C)=O [Example 252] | > 80 | > 80 | > 80 | < 80 | > 80 | > 80
9 | COc1ccnc(C(=O)N[C@@H](C)C(=O)O[C@@H](C)[C@H](Oc2ccccc2Cl)c2ccccc2)c1OC(C)=O [Example 205] | > 80 | > 80 | > 80 | – | > 80 | > 80
10 | COc1ccnc(C(=O)N[C@@H](C)C(=O)O[C@@H](C)[C@H](Oc2cccc(Cl)c2)c2ccccc2)c1OCOC(C)=O [Example 202] | > 80 | > 80 | < 80 | – | < 80 | < 80
11 | COc1ccnc(C(=O)N[C@@H](C)C(=O)O[C@@H](C)C(Oc2ccc(F)cc2)c2ccccc2)c1OC(C)=O (stereo partly shown) [Example 236] | > 80 | > 80 | > 80 | > 80 | > 80 | < 80
12 | COc1ccnc(C(=O)N[C@@H](C)C(=O)O[C@@H](C)[C@H](Oc2ccccc2)c2ccccc2)c1OCOC(C)=O [Example 183] | > 80 | > 80 | > 80 | < 80 | > 80 | > 80
13 | COc1ccnc(C(=O)N[C@@H](C)C(=O)O[C@@H](C)C(Oc2ccc(F)cc2)c2ccc(F)cc2)c1OCOC(C)=O (stereo partly shown) [Example 238] | > 80 | > 80 | > 80 | > 80 | > 80 | < 80
14 | COc1cc(F)ccc1[C@@H](Oc1ccccc1)[C@H](C)OC(=O)[C@H](C)NC(=O)c1nccc(OC)c1OCOC(C)=O [Example 256] | > 80 | > 80 | > 80 | – | > 80 | > 80
15 | COc1ccccc1[C@@H](Oc1ccccc1)[C@H](C)OC(=O)[C@H](C)NC(=O)c1nccc(OC)c1OCOC(C)=O [Example 255] | > 80 | > 80 | > 80 | < 80 | > 80 | > 80
16 | COc1ccnc(C(=O)N[C@@H](C)C(=O)O[C@@H](C)[C@H](Oc2ccc(F)cc2)c2ccccc2)c1OC(C)=O [Example 235] | > 80 | > 80 | > 80 | < 80 | > 80 | > 80
